This assay concerns the target LSD-1 enzyme (Homo sapiens (Human), UniProt O60341). The assay is described as follows: LANCE LSD1/KDM1A demethylase assay (LSD1 histone demethylase biochemical assay). Particulars: 1 nM LSD-1 enzyme, 1 hour preincubation at 25° C., 0.4 μM Biotin-labeled Histone H3 peptide substrate. The procedure: LANCE LSD1/KDM1A demethylase assay—10 μL of 1 nM LSD-1 enzyme (ENZO BML-SE544-0050) in the assay buffer (50 mM Tris, pH 7.5, 0.01% Tween-20, 25 mM NaCl, 5 mM DTT) were preincubated for 1 hour at 25° C. with 0.8 μL compound/DMSO dotted in black 384 well polystyrene plates. […] After stopping the reactions plates were incubated for 30 minutes and read on a PHERAstar FS plate reader (BMG Labtech).

pIC50: −log10 of the molar value. Where only a bound is given, the exact number is not on record here.

For 1 compound, IC50 results are on record in patent US10676457B2, “Cyclopropylamines as LSD1 inhibitors” (Incyte Corporation, priority 2014, dated 2020).

Consider `CS(=O)(=O)N1CC(CCO)(N2CCC(N[C@@H]3C[C@H]3c3ccccc3)CC2)C1` [Example 93, 2-[1-(methylsulfonyl)-3-(4-{[(1R,2S)-2-phenylcyclopropyl]amino}piperidin-1-yl)azetidin-3-yl]ethanol], for which the pIC50 is above 7.00.
